The values that follow come from BindingDB's records for doi:10.1016/j.bmcl.2004.03.046 (Seoul National University, 2004).

In general, IC50 refers to the concentration that inhibits the measured activity by half. Low values mean higher potency, high ones lower potency.

The target of the assay is Tyrosinase (Agaricus bisporus). Kind of assay: Inhibitory activity against mushroom tyrosinase.
In the case of `O=C(N[C@@H](Cc1ccccc1)C(=O)N[C@@H](Cc1c[nH]c2ccccc12)C(=O)N[C@@H](Cc1c[nH]c2ccccc12)C(=O)O)OCc1cc(=O)c(O)co1` [2-[(S)-2-[(S)-2-(5-Hydroxy-4-oxo-4H-pyran-2-ylmethoxycarbonylamino)-3-phenyl-propionylamino]-3-(1H-indol-3-yl)-propionylamino]-3-(1H-indol-3-yl)-propionic acid], half-maximal inhibition (IC50) was put at 6170 nM.
`CC[C@H](C)[C@H](NC(=O)[C@H](Cc1c[nH]c2ccccc12)NC(=O)[C@H](Cc1ccccc1)NC(=O)OCc1cc(=O)c(O)co1)C(=O)O` [2-[(S)-2-[(S)-2-(5-Hydroxy-4-oxo-4H-pyran-2-ylmethoxycarbonylamino)-3-phenyl-propionylamino]-3-(1H-indol-3-yl)-propionylamino]-3-(S)-methyl-pentanoic acid] yielded an IC50 of 2180 nM.
Take `O=C(N[C@@H](Cc1ccccc1)C(=O)N[C@@H](Cc1c[nH]c2ccccc12)C(=O)N[C@@H](Cc1ccccc1)C(=O)O)OCc1cc(=O)c(O)co1` [2-[(S)-2-[(S)-2-(5-Hydroxy-4-oxo-4H-pyran-2-ylmethoxycarbonylamino)-3-phenyl-propionylamino]-3-(1H-indol-3-yl)-propionylamino]-3-phenyl-propionic acid]: the IC50 stood at 4480 nM.
In turn, `O=C(O)C[C@H](NC(=O)[C@H](Cc1c[nH]c2ccccc12)NC(=O)[C@H](Cc1ccccc1)NC(=O)OCc1cc(=O)c(O)co1)C(=O)O` [2-[(S)-2-[(S)-2-(5-Hydroxy-4-oxo-4H-pyran-2-ylmethoxycarbonylamino)-3-phenyl-propionylamino]-3-(1H-indol-3-yl)-propionylamino]-succinic acid] had an IC50 of 2130 nM.
With `O=C(N[C@@H](Cc1ccccc1)C(=O)N[C@@H](Cc1ccc(O)cc1)C(=O)N[C@@H](Cc1ccc(O)cc1)C(=O)O)OCc1cc(=O)c(O)co1` [(S)-2-[(S)-2-[(S)-2-(5-Hydroxy-4-oxo-4H-pyran-2-ylmethoxycarbonylamino)-1-oxo-3-phenyl-propylamino]-3-(4-hydroxy-phenyl)-propionylamino]-3-(4-hydroxy-phenyl)-propionic acid] the figure was 390 nM; with `O=C(N[C@@H](Cc1ccccc1)C(=O)N[C@@H](Cc1ccccc1)C(=O)N[C@@H](Cc1ccc(O)cc1)C(=O)O)OCc1cc(=O)c(O)co1` [(S)-2-{(S)-2-[(S)-2-(5-Hydroxy-4-oxo-4H-pyran-2-ylmethoxycarbonylamino)-1-oxo-3-phenyl-propylamino]-3-phenyl-propionylamino}-3-(4-hydroxy-phenyl)-propionic acid], 330 nM.
